Reference: patent US8580785B2, “Insecticides” (Syngenta Crop Protection LLC, priority 2005, dated 2013)

Assays:
Spodoptera littoralis = assay: Activity against Spodoptera littoralis; format: in vivo; conditions: 72 h, 400 ppm spray on young soya plants, 1st instar caterpillars, 3 days, read-out: percentage reduction in the population and in the feeding damage (% activity)
Experimental: (§1) Young soya plants are sprayed with an aqueous emulsion spray mixture comprising 400 ppm of active ingredient and, after the spray coating has dried on, populated with 10 caterpillars (1st instar) of Spodoptera littoralis and introduced into a plastic container. 3 days later, the percentage reduction in the population and in the feeding damage (% activity) are determined by comparing the number of dead caterpillars and the feeding damage between the treated and untreated plants.

Plutella xylostella = assay: Activity against Plutella xylostella; format: in vivo; conditions: 72 h, 400 ppm spray on young cabbage plants, 3rd instar caterpillars, 3 days, read-out: percentage reduction in the population and in the feeding damage (% activity)
Experimental: as §1, with “cabbage” for “soya”, “(3rd” for “(1st”, “Plutella xylostella” for “Spodoptera littoralis”

[1] = tested on: Frankliniella occidentalis; assay: Activity against Frankliniella occidentalis; format: in vivo; conditions: bean leaf discs (6 days) or bean plants (14 days); mixed population
Experimental: Bean leaf discs on agar in petri dishes or bean plants in a spray chamber are treated with diluted test solutions. After drying leaf discs are cut and placed in plastic cups on the surface of an agar layer and infested with mixed population. 6 days (leaf discs) or 14 days (plants) after the infestation, samples are checked for reduction of treated population and compared to the non treated population. In this test, compounds listed in Table P above show good activity. In particular compound T7.1.7 has an activity of over 80%.

Heliothis virescens = assay: Activity against Heliothis virescens (foliar application); format: in vivo; conditions: 144 h, 400 ppm spray on young soya plants, 1st instar caterpillars, 6 days, read-out: percentage reduction in the population and in the feeding damage (% activity)
Experimental: as §1, with “Heliothis virescens” for “Spodoptera littoralis”, “6” for “3”

Diabrotica balteata = assay: Activity against Diabrotica balteata (sprayed maize seedlings); format: in vivo; conditions: 144 h, 400 ppm spray on maize seedlings, 2nd instar larvae, 6 days, read-out: percentage reduction in the population (% activity)
Experimental: Maize seedlings are sprayed with an aqueous emulsion spray mixture comprising 400 ppm of active ingredient and, after the spray coating has dried on, populated with 10 larvae (2nd instar) of Diabrotica balteata and introduced into a plastic container. 6 days later, the percentage reduction in the population (% activity) is determined by comparing the number of dead larvae between the treated and untreated plants.

Myzus persicae = assay: Systemic insecticide test for Myzus persicae; format: in vivo; conditions: roots of infected pea seedlings in 400 ppm spray mixture, 20°, 3 and 6 days, read-out: percentage reduction in the population (% activity)
Experimental: Pea seedlings are infected with Myzus persicae, and their roots are subsequently placed into a spray mixture comprising 400 ppm of active ingredient. The seedlings are then incubated at 20°. 3 and 6 days later, the percentage reduction in the population (% activity) is determined by comparing the number of dead aphids between the treated and untreated plants.

Compound | melting point | inhibition at 400 ppm (Spodoptera littoralis) | inhibition at 400 ppm (Plutella xylostella) | reduction of treated population (activity) [1] | inhibition at 400 ppm (Heliothis virescens) | inhibition at 400 ppm (Diabrotica balteata) | inhibition at 400 ppm (Myzus persicae)
CNC(=O)c1cc2[nH]cnc2c(Cl)c1NC(=O)c1cc(C(F)(F)F)nn1-c1ncccc1Cl | 190 to 192 °C |  |  |  |  |  | 
O=C(NCC1CC1)c1cc2nccnc2c(Cl)c1NC(=O)c1cc(C(F)(F)F)nn1-c1ncccc1Cl [Compound T1.1.14, 8-chloro-7-{[2-(3-chloro-pyridin-2-yl)-5-trifluoromethyl-2H-pyrazole-3-carbonyl]-amino}-quinoxaline-6-carboxylic acid cyclopropylmethyl-amide] |  | > 80% | > 80% |  |  |  | 
Cc1ccc2c(C)c(NC(=O)c3cc(C(F)(F)F)nn3-c3ncccc3Cl)c(C(=O)NC(C)C)cc2n1 [Compound T7.1.7] |  | > 80% | > 80% | over 80% | > 80% |  | 
CNC(=O)c1cc2nc(C(F)(F)F)ccc2c(C)c1NC(=O)c1cc(C(F)(F)F)nn1-c1ncccc1Cl [Compound T8.1.1, 6-{[2-(3-Chloro-pyridin-2-yl)-5-trifluoromethyl-2H-pyrazole-3-carbonyl]-amino}-5-methyl-2-trifluoromethyl-quinoline-7-carboxylic acid methyl amide] | 227 to 230 °C | > 80% | > 80% |  |  | > 80% | 
CNC(=O)c1cc2nc(C(F)(F)F)ccc2c(Cl)c1NC(=O)c1cc(C(F)(F)F)nn1-c1ncccc1Cl [Compound T8.1.2, 5-Chloro-6-{[2-(3-chloro-pyridin-2-yl)-5-trifluoromethyl-2H-pyrazole-3-carbonyl]-amino}-2-trifluoromethyl-quinoline-7-carboxylic acid methyl amide] | 233 to 237 °C | > 80% | > 80% |  |  | > 80% | 
CNC(=O)c1cc2nc(C(F)(F)F)ccc2c(OC)c1NC(=O)c1cc(C(F)(F)F)nn1-c1ncccc1Cl [Compound T8.1.121, 6-{[2-(3-Chloro-pyridin-2-yl)-5-trifluoromethyl-2H-pyrazole-3-carbonyl]-amino}-5-methoxy-2-trifluoromethyl-quinoline-7-carboxylic acid methyl amide] |  | > 80% | > 80% |  |  |  | 
CNC(=O)c1cc2nc(C(F)(F)F)ccc2cc1NC(=O)c1cc(Br)nn1-c1ncccc1Cl [Compound T8.1.153, 6-{[5-Bromo-2-(3-chloro-pyridin-2-yl)-2H-pyrazole-3-carbonyl]-amino}-2-trifluoromethyl-quinoline-7-carboxylic acid methyl amide] | 120 to 127 °C | > 80% | > 80% |  |  |  | 
Cc1nc2cc(C(=O)NC(C)C)c(NC(=O)c3cc(C(F)(F)F)nn3-c3ncccc3Cl)c(Cl)c2nc1C [Compound T19.1.8, 8-chloro-7-{[2-(3-chloro-pyridin-2-yl)-5-trifluoromethyl-2H-pyrazole-3-carbonyl]-amino}-2,3-dimethyl-quinoxaline-6-carboxylic acid isopropylamide] |  | > 80% |  |  |  |  | 
CNC(=O)c1cc2nsnc2c(Cl)c1NC(=O)c1cc(C(F)(F)F)nn1-c1ncccc1Cl [Compound T20.1.2, 7-chloro-6-{[2-(3-chloro-pyridin-2-yl)-5-trifluoromethyl-2H-pyrazole-3-carbonyl]-amino}-benzo[1,2,5]thiadiazole-5-carboxylic acid methylamide] |  | > 80% | > 80% |  |  |  | 
CC(C)NC(=O)c1cc2nsnc2c(Cl)c1NC(=O)c1cc(C(F)(F)F)nn1-c1ncccc1Cl [Compound T20.1.8, 7-chloro-6-{[2-(3-chloro-pyridin-2-yl)-5-trifluoromethyl-2H-pyrazole-3-carbonyl]-amino}-benzo[1,2,5]thiadiazole-5-carboxylic acid isopropylamide] |  | > 80% | > 80% |  |  |  | 
O=C(NCC1CC1)c1cc2nsnc2c(Cl)c1NC(=O)c1cc(C(F)(F)F)nn1-c1ncccc1Cl [Compound T20.1.14, 7-chloro-6-{[2-(3-chloro-pyridin-2-yl)-5-trifluoromethyl-2H-pyrazole-3-carbonyl]-amino}-benzo[1,2,5]thiadiazole-5-carboxylic acid cyclopropylmethyl-amide] |  | > 80% | > 80% |  |  |  | 
CC(C)NC(=O)c1cc2[nH]cnc2c(Cl)c1NC(=O)c1cc(C(F)(F)F)nn1-c1ncccc1Cl [Compound T21.1.8, 7-chloro-6-{[2-(3-chloro-pyridin-2-yl)-5-trifluoromethyl-2H-pyrazole-3-carbonyl]-amino}-3H-benzoimidazole-5-carboxylic acid isopropylamide] | 200 to 203 °C | > 80% | > 80% |  |  |  | 
O=C(NCC1CC1)c1cc2[nH]cnc2c(Cl)c1NC(=O)c1cc(C(F)(F)F)nn1-c1ncccc1Cl [Compound T21.1.14] | 198 to 201 °C |  | > 80% |  |  |  | 
CC(C)NC(=O)c1cc2ncn(C)c2c(Cl)c1NC(=O)c1cc(C(F)(F)F)nn1-c1ncccc1Cl [Compound T22.1.8, 7-chloro-6-{[2-(3-chloro-pyridin-2-yl)-5-trifluoromethyl-2H-pyrazole-3-carbonyl]-amino}-1-methyl-1H-benzoimidazole-5-carboxylic acid isopropylamide] | 150 to 155 °C | > 80% | > 80% |  |  | > 80% | 
Cn1cnc2cc(C(=O)NCC3CC3)c(NC(=O)c3cc(C(F)(F)F)nn3-c3ncccc3Cl)c(Cl)c21 [Compound T22.1.14] | 148 to 151 °C | > 80% | > 80% |  |  |  | 
Cc1nc2cc(C(=O)NC(C)C)c(NC(=O)c3cc(C(F)(F)F)nn3-c3ncccc3Cl)c(Cl)c2n1C [Compound T35.1.8, 7-chloro-6-{[2-(3-chloro-pyridin-2-yl)-5-trifluoromethyl-2H-pyrazole-3-carbonyl]-amino}-1,2-dimethyl-1H-benzoimidazole-5-carboxylic acid isopropylamide] | 248 to 250 °C | > 80% | > 80% |  |  |  | > 80%
Cc1nc2cc(C(=O)NCC3CC3)c(NC(=O)c3cc(C(F)(F)F)nn3-c3ncccc3Cl)c(Cl)c2n1C [Compound T35.1.14] | 233 to 235 °C | > 80% |  |  |  |  | 
CC(C)NC(=O)c1cc2nc(C3CC3)n(C)c2c(Cl)c1NC(=O)c1cc(C(F)(F)F)nn1-c1ncccc1Cl [Compound T37.1.8, 7-chloro-6-{[2-(3-chloro-pyridin-2-yl)-5-trifluoromethyl-2H-pyrazole-3carbonyl]-amino}-2-cyclopropyl-1-methyl-1H-benzoimidazole-5-carboxylic acid isopropylamide] | 242 to 244 °C | > 80% | > 80% |  |  |  | 
Cn1c(C2CC2)nc2cc(C(=O)NCC3CC3)c(NC(=O)c3cc(C(F)(F)F)nn3-c3ncccc3Cl)c(Cl)c21 [Compound T37.1.14] | 233 to 235 °C | > 80% | > 80% |  |  |  | 
CSC1=NC2C=C(C(=O)NCC3CC3)C(NC(=O)c3cc(C(F)(F)F)nn3-c3ncccc3Cl)=C(Cl)C2S1 (centres unmarked) [Compound T94.1.14, 7-chloro-6-{[2-(3-chloro-pyridin-2-yl)-5-trifluoromethyl-2H-pyrazole-3-carbonyl]-amino}-2-methylsulfanyl-3a,7a-dihydro-benzothiazole-5-carboxylic acid cyclopropylmethyl-amide] | 221 to 223 °C | > 80% | > 80% |  |  |  | 
COC1=NC2C=C(C(=O)NCC3CC3)C(NC(=O)c3cc(C(F)(F)F)nn3-c3ncccc3Cl)=C(Cl)C2S1 (centres unmarked) [Compound T115.1.14, 7-chloro-6-{[2-(3-chloro-pyridin-2-yl)-5-trifluoromethyl-2H-pyrazole-3-carbonyl]-amino}-2-methoxy-3a,7a-dihydro-benzothiazole-5-carboxylic acid cyclopropylmethyl-amide] |  | > 80% | > 80% |  |  |  | 
